Test results taken from patent US6403626B1, “Benzimidazole derivatives” (Synaptic Pharmaceutical Corporation, priority 1994, dated 2002).
Read-outs that look alike come from different tables or passages of the source.

How the values were obtained:
[1] = molecular target: α2C Human Adrenergic Receptor (Homo sapiens, UniProt P18825); experiment: Equilibrium competition binding, [3H] rauwolscine, membranes of transfected LM(tk-) cells
[2] = molecular target: T1, α2B Human Adrenergic Receptor (Homo sapiens, UniProt P18089); experiment: Equilibrium competition binding, [3H] rauwolscine, membranes of transfected Y-1 cells
T1 construct: expressed in transfected cells; host or cells: Y-1 cells
T1 sequence (P18089 1-450): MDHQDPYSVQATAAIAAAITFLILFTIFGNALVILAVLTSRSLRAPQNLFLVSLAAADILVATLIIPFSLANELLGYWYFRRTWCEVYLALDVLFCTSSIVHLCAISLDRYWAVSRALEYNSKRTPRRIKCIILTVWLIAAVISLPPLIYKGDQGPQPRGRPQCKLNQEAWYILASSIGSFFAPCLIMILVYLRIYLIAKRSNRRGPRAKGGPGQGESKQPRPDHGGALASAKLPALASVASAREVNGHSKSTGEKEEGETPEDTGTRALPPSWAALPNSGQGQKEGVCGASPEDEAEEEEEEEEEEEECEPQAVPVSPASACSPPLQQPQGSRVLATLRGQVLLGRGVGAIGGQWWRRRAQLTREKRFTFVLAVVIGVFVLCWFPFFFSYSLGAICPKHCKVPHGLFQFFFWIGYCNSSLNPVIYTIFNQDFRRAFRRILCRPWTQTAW
Method: (§1) Binding and functional assays were performed using stably transfected human alpha adrenergic receptors. Equilibrium competition binding assays were performed with membrane preparations from cultured LM(tk-) cells stably transfected with the cloned human adrenoceptor subtypes except for α2b, which was expressed in Y-1 cells, using [^3H] prazosin for α1 receptors and [^3H] rauwolscine for α2 receptors.
(§2) Stable cell lines were selected as described above.
(§3) Transfected cells from culture flasks were scraped into 5 ml of 5 mM Tris-HCl, 5 mM EDTA, pH 7.5, and lysed by sonication. The cell lysates were centrifuged at 1000 rpm for 5 min at 4° C., and the supernatant was centrifuged at 30,000×g for 20 min at 4° C. The pellet was suspended in 50 mM Tris-HCl, 1 mM MgCl2, and 0.1% ascorbic acid at pH 7.5. Binding of α2 antagonist [^3H] rauwolscine ([…]) to membrane preparations of LM(tk-) cells was done in a final volume of 0.25 ml and incubated at 37° C. for 20 min. Nonspecific binding was determined in the presence of 10 μM phentolamine. The reaction was stopped by filtration through GF/B filters using a cell harvester.

[3] = molecular target: T2, α1A Human Adrenergic Receptor (Homo sapiens, UniProt P25100); experiment: Equilibrium competition binding, [3H] prazosin, membranes of transfected LM(tk-) cells
T2 construct: expressed in transfected cells; host or cells: LM(tk-) cells
T2 sequence (P25100 1-572): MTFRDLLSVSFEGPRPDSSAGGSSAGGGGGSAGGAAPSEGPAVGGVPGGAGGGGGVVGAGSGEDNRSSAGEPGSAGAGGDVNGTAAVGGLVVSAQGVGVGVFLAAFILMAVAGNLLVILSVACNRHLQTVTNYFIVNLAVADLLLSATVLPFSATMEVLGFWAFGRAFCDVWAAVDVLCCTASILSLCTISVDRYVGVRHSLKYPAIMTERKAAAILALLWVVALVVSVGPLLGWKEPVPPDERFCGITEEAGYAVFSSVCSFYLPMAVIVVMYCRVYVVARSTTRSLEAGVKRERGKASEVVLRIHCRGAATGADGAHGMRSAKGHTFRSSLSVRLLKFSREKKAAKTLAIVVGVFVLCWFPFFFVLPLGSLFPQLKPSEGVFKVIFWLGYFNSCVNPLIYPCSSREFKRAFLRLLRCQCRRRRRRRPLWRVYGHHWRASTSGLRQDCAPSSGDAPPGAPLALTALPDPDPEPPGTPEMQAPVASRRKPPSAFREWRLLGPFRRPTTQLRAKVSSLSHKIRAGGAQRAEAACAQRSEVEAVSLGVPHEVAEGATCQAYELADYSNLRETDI
Method: as §1, §3, §2

[4] = molecular target: T3, α1B Human Adrenergic Receptor (Homo sapiens, UniProt P35368); experiment: as above
T3 construct: The entire coding region of α1B(1563 bp); expressed in transfected cells; host or cells: LM(tk-) cells
T3 sequence (P35368 1-520): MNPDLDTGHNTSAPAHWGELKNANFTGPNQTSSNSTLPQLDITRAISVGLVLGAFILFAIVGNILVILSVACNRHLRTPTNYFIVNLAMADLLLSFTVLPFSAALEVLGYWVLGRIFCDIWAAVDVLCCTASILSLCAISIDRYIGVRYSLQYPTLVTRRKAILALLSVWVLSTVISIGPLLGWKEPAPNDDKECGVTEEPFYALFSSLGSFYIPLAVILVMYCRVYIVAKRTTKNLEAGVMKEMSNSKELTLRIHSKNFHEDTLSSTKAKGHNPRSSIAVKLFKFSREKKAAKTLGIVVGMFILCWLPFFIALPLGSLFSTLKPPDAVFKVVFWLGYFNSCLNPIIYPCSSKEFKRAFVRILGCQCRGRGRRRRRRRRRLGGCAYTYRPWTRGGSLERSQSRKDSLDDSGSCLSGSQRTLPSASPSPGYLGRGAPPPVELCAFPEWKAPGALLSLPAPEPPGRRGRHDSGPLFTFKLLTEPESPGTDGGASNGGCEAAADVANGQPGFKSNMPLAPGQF
Method: as §1, §3
The construct involved ligating the full-length containing EcoRI brainstem cDNA fragment from ZapII into the expression vector. The stable cell lines were selected as described above.

[5] = molecular target: T4, α1C Human Adrenergic Receptor (Homo sapiens, UniProt P35348); experiment: as above
T4 construct: expressed in transfected cells; host or cells: LM(tk-) cells
T4 sequence (P35348 1-466): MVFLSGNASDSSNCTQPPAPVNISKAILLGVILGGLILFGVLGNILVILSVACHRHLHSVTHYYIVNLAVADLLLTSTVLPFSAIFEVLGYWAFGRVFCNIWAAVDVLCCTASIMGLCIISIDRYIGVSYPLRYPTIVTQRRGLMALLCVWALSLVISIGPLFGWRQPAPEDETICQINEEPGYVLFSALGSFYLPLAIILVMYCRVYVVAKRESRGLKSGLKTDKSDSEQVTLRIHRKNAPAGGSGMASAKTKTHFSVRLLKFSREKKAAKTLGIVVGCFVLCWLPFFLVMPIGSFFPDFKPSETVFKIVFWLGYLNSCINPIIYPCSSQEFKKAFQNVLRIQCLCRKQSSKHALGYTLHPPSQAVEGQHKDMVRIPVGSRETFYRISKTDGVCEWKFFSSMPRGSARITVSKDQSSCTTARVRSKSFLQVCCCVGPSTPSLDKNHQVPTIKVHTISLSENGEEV
Method: as §1, §3
The construct involved ligation three partial overlapping fragments: a 5′ 0.6 kb HincII genomic clone, a central 1.8 EcoRI hippocampal cDNA clone, and a 3′ 0.6 Kb PstI genomic clone. The hippocampal cDNA fragment overlaps with the 5′ and 3′ genomic clones so that the HincII and PstI sites at the 5 and 3′ ends of the cDNA clone, respectively, were utilized for ligation. This full-length clone was cloned into the KpnI site of the expression vector, using the 5′ and 3′ KpnI sites of the fragment, derived from vector (i.e., pBluescript) and 3′-untranslated sequences, respectively. Stable cell lines were selected as described above.

[6] = molecular target: T5, α2C Human Adrenergic Receptor (Homo sapiens, UniProt P18825); experiment: Equilibrium competition binding, [3H] rauwolscine, membranes of transfected LM(tk-) cells; remark: listed apart in the source
T5 sequence (P18825 1-462): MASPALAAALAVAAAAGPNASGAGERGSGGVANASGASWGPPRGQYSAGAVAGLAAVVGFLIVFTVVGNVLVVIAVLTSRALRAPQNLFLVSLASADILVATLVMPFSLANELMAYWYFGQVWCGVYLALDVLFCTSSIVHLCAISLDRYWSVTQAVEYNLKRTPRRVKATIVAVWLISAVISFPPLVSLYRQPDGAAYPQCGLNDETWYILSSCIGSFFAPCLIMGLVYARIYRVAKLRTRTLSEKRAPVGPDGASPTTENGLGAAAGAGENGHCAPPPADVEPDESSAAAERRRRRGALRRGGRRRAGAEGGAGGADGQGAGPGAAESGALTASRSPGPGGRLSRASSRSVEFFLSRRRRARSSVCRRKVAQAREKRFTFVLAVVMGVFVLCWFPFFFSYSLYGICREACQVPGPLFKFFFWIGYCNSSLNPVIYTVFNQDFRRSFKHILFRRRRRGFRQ

[7] = cloned human receptor, [3H] prazosin, read-out: pKi Alpha-1 B (converted)
[8] = cloned human receptor, [3H] prazosin, read-out: pKi Alpha-1 C (converted)
[9] = cloned human receptor, [3H] rauwolscine, read-out: pKi Alpha-2 B (converted)
[10] = cloned human receptor, [3H] prazosin, read-out: pKi Alpha-1 A (converted)

Row | Ki [3, 10] | Compound | Ki [1] | Ki [2] | Ki [3] | Ki [4, 7] | Ki [5, 8] | Ki [6] | Ki [2, 9] | Ki [4] | Ki [5]
1 | – | CC(C)(C)c1nc2ccc(NC3=NCCN3)c(Br)c2[nH]1 | 295 nM | – | – | – | – | – | – | – | –
2 | – | CCCCc1c(NC2=NCCN2)ccc2nc[nH]c12 | 120 nM | – | – | – | – | – | – | – | –
3 | – | CCCCc1cc(NC2=NCCN2)cc2[nH]cnc12 | 204 nM | – | – | – | – | – | – | – | –
4 | – | CCc1nc2ccc(NC3=NCCN3)c(Br)c2[nH]1 | 182 nM | – | – | – | – | – | – | – | –
5 | – | Cc1cc(NC2=NCCN2)cc2[nH]cnc12 | 126 nM | – | – | – | – | – | – | – | –
6 | – | Cc1cc2nc[nH]c2cc1NC1=NCCN1 | 214 nM | – | – | – | – | – | – | – | –
7 | – | Cn1cnc2cc(NC3=NCCN3)ccc21 | 155 nM | – | – | – | – | – | – | – | –
8 | – | CC(C)Cn1cnc2cc(NC3=NCCN3)ccc21 [Example 22, 1-Isobutyl-5-(2-imidazolin-2-ylamino)Benzimidazole] | – | 427 nM | 10500 nM | 105000 nM | 1860 nM | 182 nM | – | – | –
9 | – | CC(C)Cn1cnc2c(Br)c(NC3=NCCN3)ccc21 [Example 23, 1-Isobutyl-4-bromo-5-(2-imidazolin-2-ylamino)Benzimidazole] | – | – | 5010 nM | 38000 nM | 380 nM | 229 nM | 309 nM | – | –
10 | – | c1cc2c(cc1NC1=NCCN1)ncn2C1CCCC1 [Example 25, 1-Cyclopentyl-5-(2-imidazolin-2-ylamino)Benzimidazole] | – | 646 nM | 6170 nM | 44700 nM | 9770 nM | 437 nM | – | – | –
11 | 8910 nM | Brc1c(NC2=NCCN2)ccc2c1ncn2C1CCCC1 [Example 26, 1-Cyclopentyl-4-bromo-5-(2-imidazolin-2-ylamino)Benzimidazole] | – | – | – | 57500 nM | 9550 nM | 257 nM | 562 nM | – | –
12 | – | c1cc2ncn(C3CCCC3)c2cc1NC1=NCCN1 [Example 27, 3-Cyclopentyl-5-(2-imidazolin-2-ylamino)Benzimidazole] | – | 1020 nM | 8320 nM | 33900 nM | 6920 nM | 724 nM | – | – | –
13 | – | Brc1c(NC2=NCCN2)ccc2ncn(C3CCCC3)c12 [Example 28, 3-Cyclopentyl-4-bromo-5-(2-imidazolin-2-ylamino)Benzimidazole] | – | – | 661 nM | – | – | 95.5 nM | 41.7 nM | 10500 nM | 3800 nM
14 | 912 nM | c1cc2c(cc1NC1=NCCN1)ncn2CC1CCCCC1 [Example 29, 1-Cyclohexylmethyl-5-(2-imidazolin-2-ylamino)Benzimidazole] | – | – | – | 20900 nM | 1410 nM | 490 nM | 363 nM | – | –
15 | – | Brc1c(NC2=NCCN2)ccc2ncn(CC3CCCCC3)c12 [Example 31, 3-Cyclohexylmethyl-4-bromo-5-(2-imidazolin-2-ylamino)Benzimidazole] | – | – | 257 nM | – | – | 38.9 nM | 37.2 nM | 2140 nM | 372 nM
16 | – | c1ccc(Cn2cnc3cc(NC4=NCCN4)ccc32)cc1 [Example 32, 1-Benzyl-5-(2-imidazolin-2-ylamino)Benzimidazole] | – | – | 3720 nM | – | – | 162 nM | 50.1 nM | 33100 nM | 3890 nM
17 | 1820 nM | Brc1c(NC2=NCCN2)ccc2c1ncn2Cc1ccccc1 [Example 33, 1-Benzyl-4-bromo-5-(2-imidazolin-2-ylamino)Benzimidazole] | – | – | – | 33100 nM | 1450 nM | 162 nM | 13.8 nM | – | –
18 | – | c1ccc(Cn2cnc3ccc(NC4=NCCN4)cc32)cc1 [Example 34, 3-Benzyl-5-(2-imidazolin-2-ylamino)Benzimidazole] | – | – | 2570 nM | – | – | 186 nM | 89.1 nM | 12000 nM | 1350 nM
19 | – | Brc1c(NC2=NCCN2)ccc2ncn(Cc3ccccc3)c12 [Example 35, 3-Benzyl-4-bromo-5-(2-imidazolin-2-ylamino)Benzimidazole] | – | – | 309 nM | – | – | 17 nM | 15.8 nM | 1950 nM | 794 nM
20 | – | OCCn1cnc2ccc(NC3=NCCN3)c(Br)c21 [Example 39, 3-(2-Hydroxyethyl)-4-bromo-5-(2-imidazolin-2-ylamino)Benzimidazole] | – | – | 1580 nM | – | – | 617 nM | 490 nM | 11000 nM | 4790 nM
21 | 9330 nM | NCCn1cnc2c(Br)c(NC3=NCCN3)ccc21 [Example 40, 1-(2-Aminoethyl)-4-bromo-5-(2-imidazolin-2-ylamino)Benzimidazole] | – | – | – | 26900 nM | 9120 nM | 2820 nM | 955 nM | – | –
